Results: patent US8163929B2, “Dihydropyridone amides as P2X7 modulators” (Roche Palo Alto LLC, priority 2008, dated 2012)

Molecular target: T1, P2X7 (UniProt Q99572)
T1 sequence (Q99572 1-595): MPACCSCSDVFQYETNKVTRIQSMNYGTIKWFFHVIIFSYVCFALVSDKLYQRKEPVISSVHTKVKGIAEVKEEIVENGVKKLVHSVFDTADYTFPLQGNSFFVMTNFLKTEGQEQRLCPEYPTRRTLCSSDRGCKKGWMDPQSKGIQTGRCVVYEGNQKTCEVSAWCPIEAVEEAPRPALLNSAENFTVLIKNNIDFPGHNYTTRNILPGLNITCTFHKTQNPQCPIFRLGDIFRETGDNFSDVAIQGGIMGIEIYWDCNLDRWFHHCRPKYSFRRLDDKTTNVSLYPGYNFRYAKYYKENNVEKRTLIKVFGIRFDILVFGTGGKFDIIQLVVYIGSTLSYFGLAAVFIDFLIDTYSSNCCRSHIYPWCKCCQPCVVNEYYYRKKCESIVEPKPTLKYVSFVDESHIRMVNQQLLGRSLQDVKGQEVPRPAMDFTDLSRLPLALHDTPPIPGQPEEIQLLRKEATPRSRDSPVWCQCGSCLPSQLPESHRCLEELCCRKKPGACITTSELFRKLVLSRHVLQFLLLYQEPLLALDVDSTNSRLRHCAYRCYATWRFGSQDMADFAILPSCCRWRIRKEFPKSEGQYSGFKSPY
Test: P2X7 activity of Table 1
Format: cell-based
Settings: pIC50 values for P2X7
Procedure, shortened: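 FLIPR calcium flux with fluo-3 in 1321N1 cells expressing human P2X7 and HEK293 cells expressing rat P2X7, in HBSS with 2 mM CaCl2 and 2.5 mM probenecid. Antagonist pre-incubated 20 min at room temperature, then BzATP added (100 μM human, 5 μM rat). Peak response over 5 min normalised to 5 μM ionomycin.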

| SMILES | pIC50 |
| --- | --- |
| Cc1ccc(-c2cc(C)n(CCO)n2)cc1NC(=O)C1=CN(C)C(=O)C[C@H]1c1cccc(F)c1 [Compound 70, (S)-4-(3-Fluoro-phenyl)-1-methyl-6-ox-1,4,5,6-tetrahydro-pyridine-3-carboxylic acid {5-[1-(2-hydroxy-ethyl)-5-methyl-1H-pyrazol-3-yl]-2-methyl-phenyl}-amide] | 7.72 |
| Cc1ccc(-c2ccnn(C)c2=O)cc1NC(=O)C1=CNC(=O)C[C@H]1c1ccc(F)cc1 [Compound 71, (S)-4-(4-Fluoro-phenyl)-6-oxo-1,4,5,6-tetrahydro-pyridine-3-carboxylic acid [2-methyl-5-(2-methyl-3-oxo-2,3-dihydro-pyridazin-4-yl)-phenyl]-amide] | 8.395 |
| Cc1ccc(-c2ccn[nH]c2=O)cc1NC(=O)C1=CN(C)C(=O)C[C@H]1c1ccc(F)cc1 [Compound 72, (S)-4-(4-Fluoro-phenyl)-1-methyl-6-oxo-1,4,5,6-tetrahydro-pyridine-3-carboxylic acid [2-methyl-5-(3-oxo-2,3-dihydro-pyridazin-4-yl)-phenyl]-amide] | 7.8367 |
| Cc1ccc(-c2cc(C)n(C[C@@H](C)O)n2)cc1NC(=O)C1=CN(C)C(=O)C[C@H]1c1ccc(F)cc1 [Compound 73, (S)-4-(4-Fluoro-phenyl)-1-methyl-6-oxo-1,4,5,6-tetrahydro-pyridine-3-carboxylic acid {5-[1-((R)-2-hydroxy-propyl)-5-methyl-1H-pyrazol-3-yl]-2-methyl-phenyl}-amide] | 7.255 |
| Cc1ccc(-c2cc(C)n(C[C@H](C)O)n2)cc1NC(=O)C1=CN(C)C(=O)C[C@H]1c1ccc(F)cc1 [Compound 74, (S)-4-(4-Fluoro-phenyl)-1-methyl-6-oxo-1,4,5,6-tetrahydro-pyridine-3-carboxylic acid {5-[1-((S)-2-hydroxy-propyl)-5-methyl-1H-pyrazol-3-yl]-2-methyl-phenyl}-amide] | 7.47 |
| COC[C@H](O)Cn1nc(-c2ccc(C)c(NC(=O)C3=CNC(=O)C[C@H]3c3ccc(F)cc3)c2)cc1C [Compound 75, (S)-4-(4-Fluoro-phenyl)-6-oxo-1,4,5,6-tetrahydro-pyridine-3-carboxylic acid {5-[1-((R)-2-hydroxy-3-methoxy-propyl)-5-methyl-1H-pyrazol-3-yl]-2-methyl-phenyl}-amide] | 7.72 |
| COC[C@H](O)Cn1nc(-c2ccc(C)c(NC(=O)C3=CN(C)C(=O)C[C@H]3c3ccc(F)cc3)c2)cc1C [Compound 76, (S)-4-(4-Fluoro-phenyl)-1-methyl-6-oxo-1,4,5,6-tetrahydro-pyridine-3-carboxylic acid {5-[1-((R)-2-hydroxy-3-methoxy-propyl)-5-methyl-1H-pyrazol-3-yl]-2-methyl-phenyl}-amide] | 7.45 |
| COC[C@H](O)Cn1c(=O)cnn(-c2ccc(C)c(NC(=O)C3=CN(C)C(=O)C[C@H]3c3ccc(F)cc3)c2)c1=O [Compound 77, (S)-4-(4-Fluoro-phenyl)-1-methyl-6-oxo-1,4,5,6-tetrahydro-pyridine-3-carboxylic acid {5-[4-((R)-2-hydroxy-3-methoxy-propyl)-3,5-dioxo-4,5-dihydro-3H-[1,2,4]triazin-2-yl]-2-methyl-phenyl}-amide] | 7.5367 |
| Cc1ccc(=O)n(-c2ccc(C)c(NC(=O)C3=CNC(=O)C[C@H]3c3ccc(F)cc3)c2)n1 [Compound 78, (S)-4-(4-Fluoro-phenyl)-6-oxo-1,4,5,6-tetrahydro-pyridine-3-carboxylic acid [2-methyl-5-(3-methyl-6-oxo-6H-pyridazin-1-yl)-phenyl]-amide] | 7.31 |
| Cc1cncc(-c2ccc(C)c(NC(=O)C3=CNC(=O)C[C@H]3c3ccc(F)cc3)c2)n1 [Compound 79, (S)-4-(4-Fluoro-phenyl)-6-oxo-1,4,5,6-tetrahydro-pyridine-3-carboxylic acid [2-methyl-5-(6-methyl-pyrazin-2-yl)-phenyl]-amide] | 6.58 |
